From article PMC4608732, “Phosphorylation and Internalization of Lysophosphatidic Acid Receptors LPA1, LPA2, and LPA3” (PLoS ONE, 2015)

How the values were obtained:
LPA1 receptor [1] = target: T1, LPA1 receptor (Mus musculus, UniProt P61793); experiment: LPA1 receptor phosphorylation ([32P]Pi labeling, immunoprecipitation); format: cell-based
T1 construct: expressed in transfected cells
Experimental: (§1) The procedure was very similar to that previously described to study LPA1 receptor phosphorylation. In brief, cells were incubated in phosphate-free Dulbecco’s modified Eagle’s medium containing 100 μCi/ml [^32P]Pi for 3 h at 37°C. LPA1- and LPA2-expressing cells were cultured in 6 well plates, whereas those expressing LPA3 receptors were cultured in 10 cm dishes. Labeled cells were stimulated with the agents tested and then washed twice with ice-cold phosphate buffered saline and solubilized in buffer containing 10 mM Tris, 150 mM NaCl, 1% sodium cholate, 1% Nonident P40, protease and phosphatase inhibitors, pH 7.4 [11, 12, 14]. The lysates were incubated overnight with protein A-agarose and anti-GFP serum with constant agitation at 4°C. Samples were washed and the pellets containing the immunocomplexes were solubilized in Laemmli’s sample buffer containing 5% β-mercaptoethanol. Proteins were separated using 10% SDS-PAGE and electrotransferred onto polyvinyliden fluoride membranes. Receptor phosphorylation was analyzed with a Molecular Dynamics Typhoon PhosphorImager and the ImageJ software (http://rsb.info.nih.gov/ij/).

LPA2 receptor [2] = target: T2, LPA2 receptor (Homo sapiens, UniProt Q9HBW0); experiment: LPA2 receptor phosphorylation ([32P]Pi labeling, immunoprecipitation); format: cell-based
T2 sequence (Q9HBW0 whole entry): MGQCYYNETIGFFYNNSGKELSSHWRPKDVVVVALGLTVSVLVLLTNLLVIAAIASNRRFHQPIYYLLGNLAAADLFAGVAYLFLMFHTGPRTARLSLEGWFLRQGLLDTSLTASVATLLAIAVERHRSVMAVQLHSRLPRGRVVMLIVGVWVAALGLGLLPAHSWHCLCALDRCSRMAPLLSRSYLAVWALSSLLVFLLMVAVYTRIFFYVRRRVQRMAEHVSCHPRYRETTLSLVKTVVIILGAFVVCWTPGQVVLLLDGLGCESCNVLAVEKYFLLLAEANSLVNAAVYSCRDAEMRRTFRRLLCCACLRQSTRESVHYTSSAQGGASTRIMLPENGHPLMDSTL
Experimental: as §1

LPA3 receptor [3] = target: T3, LPA3 receptor (Homo sapiens, UniProt Q9UBY5); experiment: LPA3 receptor phosphorylation ([32P]Pi labeling, immunoprecipitation); format: cell-based
T3 sequence (Q9UBY5 1-353): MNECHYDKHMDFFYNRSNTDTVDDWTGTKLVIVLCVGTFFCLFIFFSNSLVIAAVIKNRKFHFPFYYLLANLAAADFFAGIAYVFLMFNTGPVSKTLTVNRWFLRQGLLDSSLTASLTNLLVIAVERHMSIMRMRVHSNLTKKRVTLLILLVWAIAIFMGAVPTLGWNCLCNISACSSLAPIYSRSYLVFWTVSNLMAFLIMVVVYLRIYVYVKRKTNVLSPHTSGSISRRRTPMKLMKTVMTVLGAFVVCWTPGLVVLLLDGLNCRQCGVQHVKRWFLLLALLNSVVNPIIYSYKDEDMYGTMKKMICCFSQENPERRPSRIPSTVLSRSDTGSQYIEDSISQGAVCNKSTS

ERK 1/2 = ERK 1/2 phosphorylation (Western blotting) in C9 cells overexpressing LPA1-3; format: cell-based, rat
Experimental: Cells were cultured to near confluence in 6 well plates and stimulated with the agents tested for the times indicated. Total cellular extracts were obtained by lysing the cells in Laemmli’s sample buffer containing 5% β-mercaptoethanol. The cell extracts were subject to 10% SDS-PAGE and transferred to nitrocellulose membranes. Membranes from samples obtained in parallel were incubated overnight at 4°C, with anti-pERK 1/2 (1:2000) or anti ERK 1/2 (1:2000). The membranes were washed and incubated for 1 h at room temperature with a horseradish peroxidase-conjugated secondary antibody (1:10,000) for enhanced chemiluminescence detection.

wild-type C9 cells = experiment: Intracellular calcium concentration response to LPA, wild type C9 cells; format: cell-based, rat
Experimental: (§2) C9 cells (Clone 9, rat hepatic epithelial cells, CRL-1439™), obtained directly from American Type Culture Collection, were cultured in Ham’s F12 Kaighn’s modification medium supplemented with 10% fetal bovine serum, 100 μg/ml streptomycin, 100 units/ml penicillin and 0.25 μg/ml amphotericin B at 37°C under a 95% air and 5% CO2 atmosphere, as described previously. The medium was replaced with one containing 1% fetal bovine serum, 12–16 h before the experiment. C9 cells stably expressing the mouse LPA1 receptor fused at the carboxyl termini with eGFP were those previously described. […] As depicted in”Fig A in S1 File”, expression of LPA1 and LPA2 receptors was similar (~80%) whereas that of LPA3 was consistently lower (~60%), as evidenced by fluorescence imaging and flow cytometry. Flow cytometry was performed using an Attune NxT Acoustic Focusing Cytometer, employing excitation of 488 nm; data were analyzed using the Attune cytometric software included with the equipment.
(§3) This procedure has been described previously. […] Determinations were carried in an AMINCO-Bowman Series 2 luminescence spectrometer, employing 340 and 380 nm excitation wavelengths and an emission wavelength of 510 nm; chopper interval was 0.5 sec. The intracellular calcium concentration was calculated as described by Grynkiewicz et al.. […]

LPA1 receptor [4] = target: T1, LPA1 receptor; experiment: Intracellular calcium concentration response to LPA, C9 cells overexpressing LPA1; format: cell-based
Experimental: as §2, §3

LPA2 receptor [5] = target: T2, LPA2 receptor; experiment: Intracellular calcium concentration response to LPA, C9 cells overexpressing LPA2; format: cell-based
Experimental: as §2, §3

LPA3 receptor [6] = target: T3, LPA3 receptor; experiment: Intracellular calcium concentration response to LPA, C9 cells overexpressing LPA3; format: cell-based; conditions: cells over-expressing LPA3
Experimental: C9 cells (Clone 9, rat hepatic epithelial cells, CRL-1439™), obtained directly from American Type Culture Collection, were cultured in Ham’s F12 Kaighn’s modification medium supplemented with 10% fetal bovine serum, 100 μg/ml streptomycin, 100 units/ml penicillin and 0.25 μg/ml amphotericin B at 37°C under a 95% air and 5% CO2 atmosphere, as described previously [11]. The medium was replaced with one containing 1% fetal bovine serum, 12–16 h before the experiment. C9 cells stably expressing the mouse LPA1 receptor fused at the carboxyl termini with eGFP were those previously described [11]. […] Flow cytometry was performed using an Attune NxT Acoustic Focusing Cytometer, employing excitation of 488 nm; data were analyzed using the Attune cytometric software included with the equipment.
Briefly, cells were loaded with 2.5 μM Fura-2 AM in Krebs–Ringer–Hepes containing 0.05% bovine serum albumin (pH 7.4) for 1 h at 37°C and then washed to eliminate unincorporated indicator. Determinations were carried in an AMINCO-Bowman Series 2 luminescence spectrometer, employing 340 and 380 nm excitation wavelengths and an emission wavelength of 510 nm; chopper interval was 0.5 sec. The intracellular calcium concentration was calculated as described by Grynkiewicz et al. [27]. […]

LPA1 receptor [7] = target: T1, LPA1 receptor; experiment: Heterologous (PMA) / homologous (LPA) desensitization of LPA-induced calcium response, LPA1 cells; format: cell-based; conditions: preincubation 10 min, washed, challenge 1 μM LPA, LPA1 cells
Experimental: (§4) This procedure has been described previously. Briefly, cells were loaded with 2.5 μM Fura-2 AM in Krebs–Ringer–Hepes containing 0.05% bovine serum albumin (pH 7.4) for 1 h at 37°C and then washed to eliminate unincorporated indicator. Determinations were carried in an AMINCO-Bowman Series 2 luminescence spectrometer, employing 340 and 380 nm excitation wavelengths and an emission wavelength of 510 nm; chopper interval was 0.5 sec. The intracellular calcium concentration was calculated as described by Grynkiewicz et al.. In the experiments where prolonged incubation was required (resensitization studies), cells were stimulated, washed, and the incubation was continued in the presence of Fura-2 AM, to avoid dye depletion.
(§5) Agonists-mediated decreases occurred in a concentration-dependent fashion, with a maximum at the concentration of ~ 100 nM. […] It is worth noticing that the shift in the curves was more pronounced in LPA1- or LPA3-expressing cells, than in those that expressed the LPA2 subtype.
(§6) Plotted are the increases in calcium as the percentage of that obtained in cells preincubated without any agent as mean ± S. E. M. of 6 experiments using different cell preparations.

LPA2 receptor [8] = target: T2, LPA2 receptor; experiment: Heterologous (PMA) / homologous (LPA) desensitization of LPA-induced calcium response, LPA2 cells; format: cell-based; conditions: preincubation 10 min, washed, challenge 1 μM LPA, LPA2 cells
Experimental: as §4, §5, §6

LPA3 receptor [9] = target: T3, LPA3 receptor; experiment: Heterologous (PMA) / homologous (LPA) desensitization of LPA-induced calcium response, LPA3 cells; format: cell-based; conditions: preincubation 10 min, washed, challenge 1 μM LPA, LPA3 cells
Experimental: as §4, §5, §6

LPA1 receptor [10] = target: T1, LPA1 receptor; experiment: LPA1 receptor internalization, confocal imaging; format: cell-based; conditions: LPA1 cells
Experimental: (§7) Cells were seeded at approximately 30% confluence onto glass-bottomed Petri dishes and cultured for 3 h at 37°C in media containing 1% serum. After treatment, cells were washed three times with phosphate buffered saline and fixed with 4% paraformaldehyde in 0.1 M phosphate buffer for 20 min at room temperature; samples were then washed three additional times with phosphate buffered saline. The fluorescent images were acquired with an Olympus Fluoview FV10 confocal microscope with a water-immersion objective (60X). To determine receptor internalization, the plasma membrane was delineated utilizing the differential interference contrast imaging, and fluorescence in this region was quantified employing the ImageJ software. At least 5 or 6 images of different cultures were taken for each condition. Data were normalized as follows: for each experiment, fluorescence (arbitrary units) at the plasma membrane of baseline samples were pooled and the average was considered as 100%.

LPA2 receptor [11] = target: T2, LPA2 receptor; experiment: LPA2 receptor internalization, confocal imaging; format: cell-based; conditions: LPA2 cells
Experimental: as §7

LPA3 receptor [12] = target: T3, LPA3 receptor; experiment: LPA3 receptor internalization, confocal imaging; format: cell-based; conditions: LPA3 cells
Experimental: as §7

[13] = 1 μM LPA 10 min, washed, incubated to 60 or 120 min

T1 sequence (P61793 whole entry): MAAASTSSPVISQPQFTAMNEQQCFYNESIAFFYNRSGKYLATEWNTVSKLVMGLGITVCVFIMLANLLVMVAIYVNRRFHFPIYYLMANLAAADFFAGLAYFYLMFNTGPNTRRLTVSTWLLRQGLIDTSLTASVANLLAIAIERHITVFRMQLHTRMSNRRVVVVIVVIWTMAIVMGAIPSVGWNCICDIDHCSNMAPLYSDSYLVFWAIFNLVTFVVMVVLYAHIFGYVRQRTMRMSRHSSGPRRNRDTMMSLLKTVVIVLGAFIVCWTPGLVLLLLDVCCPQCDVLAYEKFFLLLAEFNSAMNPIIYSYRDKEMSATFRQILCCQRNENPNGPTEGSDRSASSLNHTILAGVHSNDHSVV

Question: `COc1cc2ncnc(Nc3cccc(Cl)c3)c2cc1OC` [AG1478] was tested. Which “effect on LPA-induced receptor phosphorylation” value (LPA1 receptor [1]; 10 μM AG1478 30 min, then 1 μM LPA 15 min, LPA1 cells) did it give?
Answer: markedly reduced (but did not abolish)

Question: And the “effect on LPA-induced receptor phosphorylation” value (LPA2 receptor [2]; 10 μM AG1478 30 min, then 1 μM LPA 15 min, LPA2 cells)?
Answer: markedly reduced (but did not abolish)

Question: What about the “effect on LPA-induced receptor phosphorylation” value (LPA3 receptor [3]; 10 μM AG1478 30 min, then 1 μM LPA 15 min, LPA3 cells) of the same compound?
Answer: markedly reduced (but did not abolish)

Question: And the “effect on baseline phospho-ERK signal” value (ERK 1/2; 10 μM AG1478 30 min, cells expressing LPA1 receptors)?
Answer: did not alter it

Question: And the “effect on baseline phospho-ERK signal” value (ERK 1/2; 10 μM AG1478 30 min, cells overexpressing LPA2, statistically insignificant)?
Answer: decrease it

Question: What about the “effect on baseline phospho-ERK signal” value (ERK 1/2; 10 μM AG1478 30 min, cells overexpressing LPA3, statistically significant) of the same compound?
Answer: decrease it

Question: And the “effect on LPA- and EGF-induced ERK phosphorylation” value (ERK 1/2; 10 μM AG1478 30 min, then 1 μM LPA or 100 ng/ml EGF 5 min)?
Answer: clearly diminished the effect of both growth factors

Question: How did the “maximal calcium concentration increase” value (wild-type C9 cells) turn out when `CCCCCCCC/C=C\CCCCCCCC(=O)OC[C@@H](O)COP(=O)(O)O` [LPA] was run?
Answer: 150 to 200 nM

Question: And the EC50 (wild-type C9 cells; read-out: EC50, increase in intracellular calcium concentration)?
Answer: 200 to 400 nM

Question: And the EC50 (LPA1 receptor [4]; LPA1-overexpressing cells, read-out: EC50, increase in intracellular calcium concentration)?
Answer: 200 to 400 nM

Question: And the “calcium response (increase of the cation's concentration)” value (LPA1 receptor [4]; cells over-expressing LPA1)?
Answer: 450 to 600 nM

Question: And the “LPA concentration response curve, intracellular calcium” value (LPA2 receptor [5]; LPA2-overexpressing cells, curve shifted to the right)?
Answer: no clear saturation was achieved at the concentrations tested

Question: What about the “calcium response (increase of the cation's concentration)” value (LPA2 receptor [5]; cells over-expressing LPA2) of the same compound?
Answer: 450 to 600 nM

Question: And the “calcium response (increase of the cation's concentration)” value (LPA3 receptor [6])?
Answer: ~ 300 nM

Question: What about the “concentration giving maximum homologous desensitization” value (LPA1 receptor [7]) of the same compound?
Answer: ~ 100 nM

Question: And the “concentration giving maximum homologous desensitization” value (LPA2 receptor [8])?
Answer: ~ 100 nM

Question: What about the “concentration giving maximum homologous desensitization” value (LPA3 receptor [9]) of the same compound?
Answer: ~ 100 nM

Question: What about the “time to maximum receptor phosphorylation” value (LPA1 receptor [1]; 1 μM agent, LPA1 cells) of the same compound?
Answer: ≤ 15 min

Question: What about the “concentration at which receptor phosphorylation saturates” value (LPA1 receptor [1]; 15 min incubation, LPA1-overexpressing cells) of the same compound?
Answer: ~ 1 μM

Question: And the EC50 (LPA1 receptor [1]; 15 min incubation, LPA1-overexpressing cells, read-out: EC50, receptor phosphorylation)?
Answer: 10 to 30 nM

Question: What about the “time to maximum receptor phosphorylation” value (LPA2 receptor [2]; 1 μM agent, LPA2 cells) of the same compound?
Answer: ≤ 15 min

Question: And the “concentration-response curve, receptor phosphorylation” value (LPA2 receptor [2]; 15 min incubation, LPA2-overexpressing cells, shift to higher concentrations)?
Answer: no clear saturation was obtained

Question: What about the “time to maximum receptor phosphorylation” value (LPA3 receptor [3]; 1 μM agent, LPA3 cells) of the same compound?
Answer: ≤ 15 min

Question: And the “concentration at which receptor phosphorylation saturates” value (LPA3 receptor [3]; 15 min incubation, LPA3-overexpressing cells)?
Answer: ~ 1 μM

Question: And the “increase in ERK phosphorylation” value (ERK 1/2; 1 μM LPA, 5 min, cells overexpressing LPA1-3)?
Answer: ~ 2 fold

Question: What about the “recovery of fluorescence at the membrane level after washing” value (“recovery of fluorescence” for short) (LPA1 receptor [10]; [13]) of the same compound?
Answer: recovered rapidly and completely

Question: What about the “receptor internalization (fluorescence at the plasma membrane)” value (LPA1 receptor [10]; 1 μM agent, 30 or 60 min) of the same compound?
Answer: markedly decreasing fluorescence at the plasma membrane level

Question: And the “recovery of fluorescence” value (LPA2 receptor [11]; [13])?
Answer: slowly

Question: What about the “receptor internalization (decrease in fluorescence at the plasma membrane, compared with other subtypes)” value (LPA2 receptor [11]; 1 μM agent, 30 or 60 min) of the same compound?
Answer: much less intense

Question: What about the “recovery of fluorescence” value (LPA3 receptor [12]; [13]) of the same compound?
Answer: only partially and also slowly

Question: And the “receptor internalization (fluorescence at the plasma membrane)” value (LPA3 receptor [12]; 1 μM agent, 30 or 60 min)?
Answer: markedly decreasing fluorescence at the plasma membrane level
